Molecules are shown by their SMILES.

The assay has as its system boar sperm cells. The assay is described as follows: Motility of sperm in boar semen stored at 17° C. in sperm cell medium (Sperm Vison). Type of assay: cell-based. The procedure:
Compositions comprising sperm cell media were prepared prior to collection by reconstituting Androhep Plus™ and the individual components indicated in the experiments below with microfiltered, deionized (Type I) water. Androhep Plus™ was prepared according to the manufacturer's instructions, except that additional components were added in an amount sufficient to give the concentrations indicated below. Each composition was transferred in 75-ml aliquots to 100-ml plastic bottles commercially available from Minitube of America (Verona, Wis.). Semen was collected (modified full ejaculate) from randomly selected, sexually mature boars (n=3) using the gloved hand technique. Following each collection, each ejaculate was evaluated for sperm cell concentration with an SDM5 photometer with a 546 nm filter and the percentage of motile cells was assessed with Sperm Vison™ using a plain glass slide and a 6 μl drop of semen. Aliquots of semen containing 1×10^9 motile spermatozoa from each of the three boars was transferred into each 75-ml aliquot of composition comprising sperm cell medium at the same temperature (36° C.±1° C.) to give a final concentration of 4×10^7 live sperm cells/ml. Following dispersion of the sperm cells in the composition, each sample was tested for percent motility. Samples were maintained in a semen storage unit at 17° C. The samples were gently mixed periodically during storage. […] Each aliquot was pre-warmed for 30 minutes in a dry block heater at 37° C. prior to motility testing. Motility testing was which was performed using the Sperm Vison™ module in the Prism Program and a plain glass slide pre-warmed to 37° C.

For the compound `O=C(CO)[C@@H](O)[C@H](O)[C@H](O)CO` [fructose], the Mean % motility (Table 7, Androhep Plus + 20 ng/L TGFβ-1, 0.8 ng/L TGFβ-2, 80 ng/L IGF-1, fructose 3.75 g/L, day 1) is recorded as 94.9%; the Mean % motility (Table 7, Androhep Plus + 20 ng/L TGFβ-1, 0.8 ng/L TGFβ-2, 80 ng/L IGF-1, fructose 3.75 g/L, day 5) is 88.7%; the Mean % motility (Table 7, Androhep Plus + 20 ng/L TGFβ-1, 0.8 ng/L TGFβ-2, 80 ng/L IGF-1, fructose 3.75 g/L, day 10) is on record as 88.7%; the Mean % motility (Table 7, Androhep Plus + 20 ng/L TGFβ-1, 0.8 ng/L TGFβ-2, 80 ng/L IGF-1, fructose 3.75 g/L, day 20) came to 89.8%; the Mean % motility (Table 7, Androhep Plus + 20 ng/L TGFβ-1, 0.8 ng/L TGFβ-2, 80 ng/L IGF-1, fructose 7.5 g/L, day 1) turned out to be 96.9%; the Mean % motility (Table 7, Androhep Plus + 20 ng/L TGFβ-1, 0.8 ng/L TGFβ-2, 80 ng/L IGF-1, fructose 7.5 g/L, day 5) is reported as 91.0%. Besides, the Mean % motility by setting is: (Table 7, Androhep Plus + 20 ng/L TGFβ-1, 0.8 ng/L TGFβ-2, 80 ng/L IGF-1, fructose 7.5 g/L, day 10) 88.3%; (Table 7, Androhep Plus + 20 ng/L TGFβ-1, 0.8 ng/L TGFβ-2, 80 ng/L IGF-1, fructose 7.5 g/L, day 20) 89.8%; (Table 7, Androhep Plus + 20 ng/L TGFβ-1, 0.8 ng/L TGFβ-2, 80 ng/L IGF-1, fructose 15 g/L, day 1) 94.3%; (Table 7, Androhep Plus + 20 ng/L TGFβ-1, 0.8 ng/L TGFβ-2, 80 ng/L IGF-1, fructose 15 g/L, day 5) 85.8%; (Table 7, Androhep Plus + 20 ng/L TGFβ-1, 0.8 ng/L TGFβ-2, 80 ng/L IGF-1, fructose 15 g/L, day 10) 89.3%; (Table 7, Androhep Plus + 20 ng/L TGFβ-1, 0.8 ng/L TGFβ-2, 80 ng/L IGF-1, fructose 15 g/L, day 20) 89.3%. In addition, the Mean % motility was 94.7% (Table 7, Androhep Plus + 20 ng/L TGFβ-1, 0.8 ng/L TGFβ-2, 80 ng/L IGF-1, fructose 30 g/L, day 1); 54.8% (Table 7, Androhep Plus + 20 ng/L TGFβ-1, 0.8 ng/L TGFβ-2, 80 ng/L IGF-1, fructose 30 g/L, day 5); 37.4% (Table 7, Androhep Plus + 20 ng/L TGFβ-1, 0.8 ng/L TGFβ-2, 80 ng/L IGF-1, fructose 30 g/L, day 10); 2.2% (Table 7, Androhep Plus + 20 ng/L TGFβ-1, 0.8 ng/L TGFβ-2, 80 ng/L IGF-1, fructose 30 g/L, day 20).
With `O[C@H]1[C@H](O)[C@@H](O)[C@H](O)[C@@H](O)[C@H]1O` [inositol], the Mean % motility is, setting by setting: (Table 8, Androhep Plus, inositol 0.25 g/L, day 1) 85.7%; (Table 8, Androhep Plus, inositol 0.25 g/L, day 5) 88.0%; (Table 8, Androhep Plus, inositol 0.25 g/L, day 7) 93.3%; (Table 8, Androhep Plus, inositol 0.25 g/L, day 10) 78.3%; (Table 8, Androhep Plus, inositol 0.25 g/L, day 20) 48.0%; (Table 8, Androhep Plus, inositol 0.5 g/L, day 1) 94.7%. Further, the Mean % motility is listed as 93.3% (Table 8, Androhep Plus, inositol 0.5 g/L, day 5); 92.7% (Table 8, Androhep Plus, inositol 0.5 g/L, day 7); 84.3% (Table 8, Androhep Plus, inositol 0.5 g/L, day 10); 70.3% (Table 8, Androhep Plus, inositol 0.5 g/L, day 20).
For `O=S(=O)([O-])[O-].[Zn+2]` [zinc sulfate], the Mean % motility by setting is: (Table 6, base Androhep Plus, zinc sulfate 0.05 g/L, day 1) 83.3%; (Table 6, base Androhep Plus, zinc sulfate 0.05 g/L, day 5) 83.7%; (Table 6, base Androhep Plus, zinc sulfate 0.05 g/L, day 10) 87.7%; (Table 6, base Androhep Plus, zinc sulfate 0.05 g/L, day 20) 84.0%; (Table 6, base Androhep Plus, zinc sulfate 0.1 g/L, day 1) 92.0%; (Table 6, base Androhep Plus, zinc sulfate 0.1 g/L, day 5) 93.3%. The Mean % motility by setting is: (Table 6, base Androhep Plus, zinc sulfate 0.1 g/L, day 10) 89.7%; (Table 6, base Androhep Plus, zinc sulfate 0.1 g/L, day 20) 78.3%; (Table 6, base Androhep Plus, zinc sulfate 0.2 g/L, day 1) 94.7%; (Table 6, base Androhep Plus, zinc sulfate 0.2 g/L, day 5) 93.3%; (Table 6, base Androhep Plus, zinc sulfate 0.2 g/L, day 10) 87.7%; (Table 6, base Androhep Plus, zinc sulfate 0.2 g/L, day 20) 87.0%. Moreover, the Mean % motility reads like this: (Table 6, base Androhep Plus, zinc sulfate 0.5 g/L, day 1) 86.0%; (Table 6, base Androhep Plus, zinc sulfate 0.5 g/L, day 5) 85.7%; (Table 6, base Androhep Plus, zinc sulfate 0.5 g/L, day 10) 89.3%; (Table 6, base Androhep Plus, zinc sulfate 0.5 g/L, day 20) 82.5%; (Table 6, base Androhep Plus, zinc sulfate 1.0 g/L, day 1) 94.0%; (Table 6, base Androhep Plus, zinc sulfate 1.0 g/L, day 5) 73.0%. For the same compound, the Mean % motility reads like this: (Table 6, base Androhep Plus, zinc sulfate 1.0 g/L, day 10) 87.3%; (Table 6, base Androhep Plus, zinc sulfate 1.0 g/L, day 20) 78.3%.

The record behind these values is patent US6849394B2, “Compositions comprising reproductive cell media and methods for using such compositions” (Minitube of America, priority 2002, dated 2005).
